Results as given in US20100120700A1, “METHODS AND COMPOSITIONS FOR TREATING CERVICAL CANCER” (priority 2000, published 2010).
Where “and” joins values, the source holds several entries; their conditions need not be identical. Equal entries are not always repeated.

Assays:
Assay in all cases: G assay PDZ-PL binding
ZO-2 domain 2 = target: T1, ZO-2 domain 2 (Homo sapiens, UniProt Q9UDY2); conditions: peptide 10 uM, protein 5
T1 construct: made in house; host or cells: E. coli (DH5alpha, BL21 or JM109)
Experimental: (§1) (1) A PDZ-domain polypeptide is bound to a surface, e.g. a protein binding surface. In a preferred embodiment, a GST/PDZ fusion protein containing one or more PDZ domains is bound to a polystyrene 96-well plate. […] In one embodiment, the GST/PDZ fusion protein is bound via an anti-GST antibody that is coated onto the 96-well plate. Adequate binding to the plate can be achieved when: • a. 100 uL per well of 5 ug/mL goat anti-GST polyclonal antibody (Pierce) in PBS is added to a polystyrene 96-well plate (e.g., Num Polysorb) at 4° C. for 12 hours. • b. The plate is blocked by addition of 200 uL per well of PBS/BSA for 2 hours at 4° C. • c. The plate is washed 3 times with PBS. • d. 50 uL per well of 5 ug/mL GST/PDZ fusion protein) or, as a negative control, GST polypeptide alone (i.e. not a fusion protein) in PBS/BSA is added to the plate for 2 hours at 4° C. • e. The plate is again washed 3 times with PBS.
(§2) (2) Biotinylated PL peptides are allowed to react with the surface by addition of 50 uL per well of 20 uM solution of the biotinylated peptide in PBS/BSA for 10 minutes at 4° C., followed by an additional 20 minute incubation at 25° C.
(§3) (3) The binding of the biotinylated peptide to the GST/PDZ fusion protein surface can be detected using a variety of methods and detectors known to one of skill in the art. In one embodiment, 100 uL per well of 0.5 ug/mL streptavidin-horse radish peroxidase (HRP) conjugate dissolved in BSA/PBS is added and allowed to react for 20 minutes at 4° C. The plate is then washed 5 times with 50 mM Tris pH 8.0 containing 0.2% Tween 20, and developed by addition of 100 uL per well of HRP-substrate solution (TMB, Dako) for 20 minutes at room temperature (RT). The reaction of the HRP and its substrate is terminated by addition of 100 uL per well of 1M sulfuric acid, and the absorbance of each well of the plate is read at 450 nm.
(§4) (4) Specific binding of a PL peptide and a PDZ domain polypeptide is determined by comparing the signal from the well(s) in which the PL peptide and PDZ domain polypeptide are combined, with the background signal(s). The background signal is the signal found in the negative control(s). Typically a specific or selective reaction will be at least twice background signal, more typically more than 5 times background, and most typically 10 or more times the background signal. In addition, a statistically significant reaction will involve multiple measurements of the reaction with the signal and the background differing by at least two standard errors, more typically four standard errors, and most typically six or more standard errors. Correspondingly, a statistical test (e.g. a T-test) comparing repeated measurements of the signal with-repeated measurements of the background will result in a p-value<0.05, more typically a p-value<0.01, and most typically a p-value<0.001 or less. As noted, in an embodiment of the “G” assay, the signal from binding of a given PL peptide to immobilized (surface bound) GST polypeptide alone is one suitable negative control (sometimes referred to as “B 1”). Because all measurement are done in multiples (i.e. at least duplicate) the arithmetic mean (or, equivalently, average.) of several measurements is used in determining the binding, and the standard error of the mean is used in determining the probable error in the measurement of the binding. The standard error of the mean of N measurements equals the square root of the following: the sum of the squares of the difference between each measurement and the mean, divided by the product of (N) and (N−1). Thus, in one embodiment, specific binding of the PDZ protein to the platebound peptide is determined by comparing the mean signal (“mean S”) and standard error of the signal (“SE”) for a particular PL-PDZ combination with the mean B1. […]

MAGI 1 domain 5 = target: T2, MAGI 1 domain 5 (Homo sapiens, UniProt Q96QZ7); conditions: peptide 10 uM, protein 5
T2 construct: made in house; host or cells: E. coli (DH5alpha, BL21 or JM109)
Experimental: as §1, §2, §3, §4

PDZK1 domain 3 = target: T3, PDZK1 domain 3 (Homo sapiens, UniProt Q5T2W1); conditions: peptide 10 uM, protein 5
T3 construct: made in house; host or cells: E. coli (DH5alpha, BL21 or JM109)
Experimental: as §1, §2, §3, §4

KIAA0751 domain 1 = target: T4, KIAA0751 domain 1 (Homo sapiens, UniProt Q9UQ26); conditions: peptide 10 uM, protein 5
T4 construct: made in house; host or cells: E. coli (DH5alpha, BL21 or JM109)
Experimental: as §1, §2, §3, §4

EBP50 #311.1 domain 1 = target: T5, EBP50 #311.1 domain 1 (Homo sapiens, UniProt O14745); conditions: peptide 10 uM, protein 5
T5 construct: made in house; host or cells: E. coli (DH5alpha or BL-21)
Experimental: as §1, §2, §3, §4

PDZ-73 domain 2 = target: T6, PDZ-73 domain 2 (Homo sapiens, UniProt Q9Y6N9); conditions: peptide 10 uM, protein 5
T6 construct: made in house; host or cells: E. coli (DH5alpha, BL21 or JM109), vector pGEX-3X
Experimental: as §1, §2, §3, §4

INADL domain 8 = target: T7, INADL domain 8 (Homo sapiens, UniProt Q8NI35); conditions: peptide 10 uM, protein 5
T7 construct: made in house; host or cells: E. coli (DH5alpha or BL-21)
Experimental: as §1, §2, §3, §4

CARD14 domain 1 = target: T8, CARD14 domain 1 (Homo sapiens, UniProt Q9BXL6); conditions: peptide 10 uM, protein 5
T8 construct: made in house; host or cells: E. coli (DH5alpha, BL21 or JM109)
Experimental: as §1, §2, §3, §4

PTN-4 domain 1 = target: T9, PTN-4 domain 1 (Homo sapiens, UniProt P29074); conditions: peptide 10 uM, protein 5
T9 construct: made in house; host or cells: E. coli (DH5alpha, BL21 or JM109), vector pGEX-3X
Experimental: as §1, §2, §3, §4

[1] = target: T10, Syntrophin gamma 1 domain 1 (Homo sapiens, UniProt Q9NSN8); conditions: peptide 10 uM, protein 5
T10 construct: made in house; host or cells: E. coli (DH5alpha, BL21 or JM109), vector pGEX-3X
Experimental: as §1, §2, §3, §4

Outer Membrane domain 1 = target: T11, Outer Membrane domain 1 (Homo sapiens, UniProt P57105); conditions: peptide 10 uM, protein 5
T11 construct: made in house; host or cells: E. coli (DH5alpha, BL21 or JM109)
Experimental: as §1, §2, §3, §4

PSD95 domain 2 = target: T12, PSD95 domain 2 (Homo sapiens, UniProt P78352); conditions: vs GST only well, peptide 10 uM, protein 5
T12 construct: made in house; host or cells: E. coli (DH5alpha, BL21 or JM109)
Experimental: as §1, §2, §3, §4

DLG2 #290.1 domain 2 = target: T13, DLG2 #290.1 domain 2 (Homo sapiens, UniProt Q15700, K278N); conditions: peptide 10 uM, protein 5
T13 construct: made in house; host or cells: E. coli (DH5alpha, BL21 or JM109)
Experimental: as §1, §2, §3, §4

KIAA0973 #288.2 domain 1 = target: T14, KIAA0973 #288.2 domain 1 (Homo sapiens, UniProt Q9Y2H9); conditions: peptide 10 uM, protein 5
T14 construct: made in house; host or cells: E. coli (DH5alpha, BL21 or JM109)
Experimental: as §1, §2, §3, §4

T2 sequence (Q96QZ7 988-1099): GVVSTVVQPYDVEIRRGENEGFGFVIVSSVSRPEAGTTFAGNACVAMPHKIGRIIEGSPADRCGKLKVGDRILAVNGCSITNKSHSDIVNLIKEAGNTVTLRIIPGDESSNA
T13 sequence (Q15700 whole entry, looked up, the tested form differs by isoform, tags, fused parts or gaps, stated change not applied): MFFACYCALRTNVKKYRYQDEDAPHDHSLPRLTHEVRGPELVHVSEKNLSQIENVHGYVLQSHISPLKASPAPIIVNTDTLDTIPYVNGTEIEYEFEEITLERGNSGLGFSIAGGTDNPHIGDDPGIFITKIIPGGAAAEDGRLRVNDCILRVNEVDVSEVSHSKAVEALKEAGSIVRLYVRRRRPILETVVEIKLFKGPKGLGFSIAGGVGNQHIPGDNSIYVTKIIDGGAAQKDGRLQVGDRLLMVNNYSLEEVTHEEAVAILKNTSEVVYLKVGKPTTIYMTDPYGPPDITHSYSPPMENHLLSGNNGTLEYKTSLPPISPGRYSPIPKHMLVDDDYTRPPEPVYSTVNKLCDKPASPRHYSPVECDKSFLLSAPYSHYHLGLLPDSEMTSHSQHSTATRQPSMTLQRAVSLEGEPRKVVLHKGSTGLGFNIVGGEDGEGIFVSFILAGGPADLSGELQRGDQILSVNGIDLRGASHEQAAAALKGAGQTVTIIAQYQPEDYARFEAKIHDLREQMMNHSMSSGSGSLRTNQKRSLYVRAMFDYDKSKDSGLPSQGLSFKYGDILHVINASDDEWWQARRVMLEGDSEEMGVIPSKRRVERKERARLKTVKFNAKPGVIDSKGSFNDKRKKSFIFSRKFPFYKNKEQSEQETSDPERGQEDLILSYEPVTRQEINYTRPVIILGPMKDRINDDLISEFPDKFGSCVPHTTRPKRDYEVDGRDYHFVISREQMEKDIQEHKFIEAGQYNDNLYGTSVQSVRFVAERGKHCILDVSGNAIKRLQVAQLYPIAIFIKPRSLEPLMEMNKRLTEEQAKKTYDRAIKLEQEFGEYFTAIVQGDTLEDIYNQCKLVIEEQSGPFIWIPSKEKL
T14 sequence (Q9Y2H9 963-1055): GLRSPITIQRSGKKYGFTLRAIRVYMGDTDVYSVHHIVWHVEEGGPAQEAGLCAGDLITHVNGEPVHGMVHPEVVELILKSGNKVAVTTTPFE
T10 sequence (Q9NSN8 49-149): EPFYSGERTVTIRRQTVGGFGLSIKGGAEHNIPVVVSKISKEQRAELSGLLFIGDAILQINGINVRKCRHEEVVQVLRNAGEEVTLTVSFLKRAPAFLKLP
T11 sequence (P57105 with tags, fused parts or gaps): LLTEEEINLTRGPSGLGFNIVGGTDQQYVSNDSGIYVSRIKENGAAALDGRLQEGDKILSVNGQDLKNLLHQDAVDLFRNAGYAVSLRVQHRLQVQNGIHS
T7 sequence (Q8NI35 1425-1517): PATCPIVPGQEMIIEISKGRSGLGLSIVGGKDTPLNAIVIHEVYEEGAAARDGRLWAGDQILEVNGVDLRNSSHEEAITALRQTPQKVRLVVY
T1 sequence (Q9UDY2 with tags, fused parts or gaps): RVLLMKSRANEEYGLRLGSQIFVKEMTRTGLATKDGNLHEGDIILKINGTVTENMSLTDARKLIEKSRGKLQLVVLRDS
T9 sequence (P29074 518-605): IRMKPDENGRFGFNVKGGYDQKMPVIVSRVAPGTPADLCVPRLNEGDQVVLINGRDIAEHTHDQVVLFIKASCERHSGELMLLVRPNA
T4 sequence (Q9UQ26 with tags, fused parts or gaps): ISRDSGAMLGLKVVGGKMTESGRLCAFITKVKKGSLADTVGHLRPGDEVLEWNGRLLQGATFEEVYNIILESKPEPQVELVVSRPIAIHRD
T8 sequence (Q9BXL6 565-664): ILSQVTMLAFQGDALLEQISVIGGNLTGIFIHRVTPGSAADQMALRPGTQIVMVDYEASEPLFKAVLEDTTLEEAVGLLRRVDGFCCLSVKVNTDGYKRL
T5 sequence (O14745 with tags, fused parts or gaps): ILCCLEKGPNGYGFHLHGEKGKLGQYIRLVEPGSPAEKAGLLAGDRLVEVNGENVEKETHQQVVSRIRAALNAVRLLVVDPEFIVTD
T6 sequence (Q9Y6N9 with tags, fused parts or gaps): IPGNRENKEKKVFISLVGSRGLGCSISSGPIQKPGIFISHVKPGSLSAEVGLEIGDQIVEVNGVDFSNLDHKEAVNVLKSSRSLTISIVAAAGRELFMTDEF

Question: Which “Ave OD” value (ZO-2 domain 2; A450 nm) does the source give for “20 mer peptide corresponding to the C-terminus of HPV16 E6 (PDZ ligand), biotinylated in binding assays; ends SSRTRRETQL (SEQ ID NO: 13) [HPV E6 #16]” here?
Answer: Its value is 0.3565.

Question: And the “OD S/N” value (ZO-2 domain 2; vs GST only well)?
Answer: Its value is 2.15.

Question: What about the “Ave OD” value (MAGI 1 domain 5; A450 nm) of the same substance?
Answer: The value was 0.4325 and 0.541.

Question: And the “OD S/N” value (MAGI 1 domain 5; vs GST only well)?
Answer: The value was 1.77 and 3.12.

Question: What about the “Ave OD” value (PDZK1 domain 3; A450 nm) of the same substance?
Answer: Its value is 0.5.

Question: And the “OD S/N” value (PDZK1 domain 3; vs GST only well)?
Answer: The value was 1.92.

Question: What about the “Ave OD” value (KIAA0751 domain 1; A450 nm) of the same substance?
Answer: The value was 0.4505.

Question: And the “OD S/N” value (KIAA0751 domain 1; vs GST only well)?
Answer: The value was 2.10.

Question: And the “Ave OD” value (EBP50 #311.1 domain 1; A450 nm)?
Answer: Its value is 0.4325.

Question: And the “OD S/N” value (EBP50 #311.1 domain 1; vs GST only well)?
Answer: Its value is 2.05.

Question: And the “Ave OD” value (PDZ-73 domain 2; A450 nm)?
Answer: Its value is 0.5615.

Question: And the “OD S/N” value (PDZ-73 domain 2; vs GST only well)?
Answer: Its value is 1.95.

Question: And the “Ave OD” value (INADL domain 8; A450 nm)?
Answer: Its value is 0.3875.

Question: And the “OD S/N” value (INADL domain 8; vs GST only well)?
Answer: Its value is 1.58.

Question: What about the “Ave OD” value (CARD14 domain 1; A450 nm) of the same substance?
Answer: The value was 0.342.

Question: And the “OD S/N” value (CARD14 domain 1; vs GST only well)?
Answer: The value was 1.52.

Question: What about the “Ave OD” value (PTN-4 domain 1; A450 nm) of the same substance?
Answer: The value was 0.8085.

Question: What about the “OD S/N” value (PTN-4 domain 1; vs GST only well) of the same substance?
Answer: Its value is 4.03.

Question: What about the “Ave OD” value ([1]; A450 nm) of the same substance?
Answer: Its value is 0.3585 and 0.618.

Question: And the “OD S/N” value ([1]; vs GST only well)?
Answer: Its value is 2.00 and 3.08.

Question: And the “Ave OD” value (Outer Membrane domain 1; A450 nm)?
Answer: The value was 2.392 and 1.3595.

Question: And the “OD S/N” value (Outer Membrane domain 1; vs GST only well)?
Answer: Its value is 11.39 and 6.25.

Question: And the “OD S/N” value (PSD95 domain 2)?
Answer: Its value is 12.23 and 12.53.

Question: What about the “Ave OD” value (DLG2 #290.1 domain 2; A450 nm) of the same substance?
Answer: Its value is 1.784 and 1.439.

Question: And the “OD S/N” value (DLG2 #290.1 domain 2; vs GST only well)?
Answer: The value was 9.17 and 13.39.

Question: And the “Ave OD” value (KIAA0973 #288.2 domain 1; A450 nm)?
Answer: Its value is 2.8295 and 3.85.

Question: And the “OD S/N” value (KIAA0973 #288.2 domain 1; vs GST only well)?
Answer: The value was 10.11 and 16.42.
